# Measured values published in patent publication US12685312B2, “Sulfonamide apyrase inhibitors” (Texas Crop Science, Inc., priority 2022, dated 2026).
# System: apyrase
# Test: Screen for apyrase inhibitors (Method 1, in vitro phosphate-release absorbance assay)
# Type: biochemical
# Settings: inhibitor conc at 1 mM stock, 1 hr room temperature, absorbance 630 nm; rounded average of two assay results
# Method in brief: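 Phosphate-release colorimetric assay (Windsor method) in 60 mM Hepes, 3 mM MgCl2, 3 mM CaCl2, 3 mM ATP, pH 6.5, with compound or DMSO control added. Released phosphate developed with ammonium molybdate and ascorbic acid/TCA, then stopped with citrate/acetic acid.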
row,SMILES,% Inhibition of Apyrase
1,"O=C(Nc1cccc(S(=O)(=O)Nc2cccc(C(F)(F)F)c2)c1)c1cc2c(s1)CCCC2 [I-724, N-(3-(N-(3-(trifluoromethyl)phenyl)sulfamoyl)phenyl)-4,5,6,7-tetrahydrobenzo[b]thiophene-2-carboxamide]",57%
2,"O=C(Nc1cccc(S(=O)(=O)Nc2cccc(C(F)(F)F)c2)c1)c1ccc(Cl)nc1 [I-725, 6-chloro-N-(3-(N-(3-(trifluoromethyl)phenyl)sulfamoyl)phenyl) nicotinamide]",57%
3,"O=C(Nc1cccc(S(=O)(=O)Nc2cccc(Cl)c2)c1)c1ccc(Br)s1 [I-726, 5-bromo-N-(3-(N-(3-chlorophenyl)sulfamoyl)phenyl)thiophene-2-carboxamide]",56%
4,"COc1ccc(NS(=O)(=O)c2cccc(NC(=O)c3[nH]c(C)c(C(C)=O)c3C)c2)cc1 [I-727, 4-acetyl-N-(3-(N-(4-methoxyphenyl)sulfamoyl)phenyl)-3,5-dimethyl-1H-pyrrole-2-carboxamide]",56%
5,"O=C(Nc1cccc(S(=O)(=O)Nc2ccc(SC(F)F)cc2)c1)c1ccsc1 [I-728, N-(3-(N-(4-((difluoromethyl)thio)phenyl)sulfamoyl)phenyl) thiophene-3-carboxamide]",56%
6,"O=C(Nc1cccc(S(=O)(=O)Nc2ccccc2)c1)c1cccc(Cl)n1 [I-729, 6-chloro-N-(3-(N-phenylsulfamoyl)phenyl)picolinamide]",56%
7,"O=C(Nc1cccc(S(=O)(=O)Nc2ccccc2Cl)c1)c1ccc([N+](=O)[O-])s1 [I-730, N-(3-(N-(2-chlorophenyl)sulfamoyl)phenyl)-5-nitrothiophene-2-carboxamide]",55%
8,"Cc1cc(C(=O)Nc2cccc(S(=O)(=O)Nc3ccccc3F)c2)no1 [I-731, N-(3-(N-(2-fluorophenyl)sulfamoyl)phenyl)-5-methylisoxazole-3-carboxamide]",55%
9,"CN(c1ccccc1)S(=O)(=O)c1cccc(NC(=O)c2cnc3n(c2=O)CCS3)c1 [I-732, N-(3-(N-methyl-N-phenylsulfamoyl)phenyl)-5-oxo-2,3-dihydro-5H-thiazolo[3,2-a]pyrimidine-6-carboxamide]",55%
10,"COc1ncccc1C(=O)Nc1cccc(S(=O)(=O)Nc2ccc(Cl)cc2)c1 [I-733, N-(3-(N-(4-chlorophenyl)sulfamoyl)phenyl)-2-methoxynicotinamide]",54%
11,"O=C(Nc1cccc(S(=O)(=O)Nc2ccccc2Cl)c1)c1ccc2ccccc2n1 [I-734, N-(3-(N-(2-chlorophenyl)sulfamoyl)phenyl)quinoline-2-carboxamide]",54%
12,"COc1ccccc1NS(=O)(=O)c1cccc(NC(=O)c2ccc(=O)n(Cc3ccccc3)n2)c1 [I-735, 1-benzyl-N-(3-(N-(2-methoxyphenyl)sulfamoyl)phenyl)-6-oxo-1,6-dihydropyridazine-3-carboxamide]",53%
13,"COc1ccc(NS(=O)(=O)c2cccc(NC(=O)c3n[nH]c(=O)c4ccccc34)c2)cc1 [I-736, N-(3-(N-(4-methoxyphenyl)sulfamoyl)phenyl)-4-oxo-3,4-dihydrophthalazine-1-carboxamide]",53%
14,"O=C(Nc1cccc(S(=O)(=O)Nc2ccc(Cl)cc2)c1)c1ccc(=O)n(Cc2ccccc2)n1 [I-737, 1-benzyl-N-(3-(N-(4-chlorophenyl)sulfamoyl)phenyl)-6-oxo-1,6-dihydropyridazine-3-carboxamide]",53%
15,"Cc1ccc(Br)c(NS(=O)(=O)c2cccc(NC(=O)c3ccc(C)nc3)c2)c1 [I-738, N-(3-(N-(2-bromo-5-methylphenyl)sulfamoyl)phenyl)-6-methylnicotinamide]",52%
16,"CN(c1ccccc1)S(=O)(=O)c1cccc(NC(=O)c2cc(Cl)nc3ccccc23)c1 [I-739, 2-chloro-N-(3-(N-methyl-N-phenylsulfamoyl)phenyl)quinoline-4-carboxamide]",52%
